According to ChEMBL document CHEMBL1127240, “Structure-activity relationships of taxol: synthesis and biological evaluation of C2 taxol analogs” (Bioorg Med Chem Lett, 1994):

Assays:
HCT-116 = experiment: Compound was tested for inhibition of proliferation of human colon cancer cell line (HCT116); format: functional, cell-based
[1] = target: Tubulin alpha chain (Sus scrofa) (UniProt P02550); experiment: Compound was tested for effective concentration for tubulin polymerization expressed as ratio of compound relative to taxol (EC0.01 at 5 uM); format: functional
Chain of Tubulin alpha chain (Sus scrofa) (P02550 whole entry, looked up): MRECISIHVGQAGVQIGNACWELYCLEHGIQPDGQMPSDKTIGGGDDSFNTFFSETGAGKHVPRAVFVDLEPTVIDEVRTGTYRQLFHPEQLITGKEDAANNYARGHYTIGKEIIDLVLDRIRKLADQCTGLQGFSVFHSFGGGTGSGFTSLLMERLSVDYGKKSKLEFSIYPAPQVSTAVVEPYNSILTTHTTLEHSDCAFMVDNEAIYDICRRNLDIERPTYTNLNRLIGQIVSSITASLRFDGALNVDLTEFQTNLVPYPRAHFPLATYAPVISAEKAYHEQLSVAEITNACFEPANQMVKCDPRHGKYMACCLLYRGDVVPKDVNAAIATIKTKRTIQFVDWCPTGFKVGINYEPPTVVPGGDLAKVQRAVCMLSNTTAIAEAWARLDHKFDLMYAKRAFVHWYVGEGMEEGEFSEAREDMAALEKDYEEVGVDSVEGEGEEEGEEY

IC50 (HCT-116) [nM]	Ratio [1]	SMILES
> 88	> 250	COc1ccc(C(=O)O[C@H]2C3[C@](C)(C(=O)[C@H](OC(C)=O)C4=C(C)[C@@H](OC(=O)[C@H](O)[C@@H](NC(=O)c5ccccc5)c5ccccc5)C[C@]2(O)C4(C)C)[C@@H](O)C[C@H]2OC[C@@]32OC(C)=O)cc1 (some centres not stated)
2		CC(=O)O[C@H]1C(=O)[C@@]2(C)[C@H]([C@H](OC(=O)c3ccccc3)[C@]3(O)C[C@H](OC(=O)[C@H](O)[C@@H](NC(=O)c4ccccc4)c4ccccc4)C(C)=C1C3(C)C)[C@]1(OC(C)=O)CO[C@@H]1C[C@@H]2O [PACLITAXEL]
> 91	130	CC(=O)O[C@H]1C(=O)[C@@]2(C)C([C@H](OC(=O)C3CCCCC3)[C@]3(O)C[C@H](OC(=O)[C@H](O)[C@@H](NC(=O)c4ccccc4)c4ccccc4)C(C)=C1C3(C)C)[C@]1(OC(C)=O)CO[C@@H]1C[C@@H]2O (some centres not stated)

SMILES	IC50 (HCT-116) [nM]	Ratio [1]
CC(=O)O[C@H]1C(=O)[C@@]2(C)C([C@H](OC(=O)c3ccc([N+](=O)[O-])cc3)[C@]3(O)C[C@H](OC(=O)[C@H](O)[C@@H](NC(=O)c4ccccc4)c4ccccc4)C(C)=C1C3(C)C)[C@]1(OC(C)=O)CO[C@@H]1C[C@@H]2O (some centres not stated)	> 85	> 250
